Where two headings read alike, the source gives them in different places.
Tests used:
BSA [1] = biological target: T1, BSA (Bos taurus, UniProt P02769); experiment: Three-dimensional fluorescence spectroscopy of BSA; assay type: binding, bovine
T1 construct: purchased Aladdin's Reagent Co., Ltd. (Shanghai, China)
Experimental: The 3D fluorescence spectra of genistein and compounds 4a–4d were recorded with scanning excitation wavelength ranged from 200 nm to 300 nm with 10 nm interval, and emission wavelength ranged from 290 nm to 470 nm with 5 nm interval for three times. Other parameters were the same as Section 2.4.1.

HCT-116 = experiment: MTT cytotoxicity assay, HCT-116; assay type: cell-based; settings: Homo sapiens, 48 h, mean ± SD of three experiments, read-out: Cancer cell lines IC50, HCT-116
Experimental: (§1) All cell lines were purchased from the Cell Bank of Type Culture Collection of Chinese Academy of Sciences (Shanghai, China). MGC-803 was routinely cultured in RPMI-1640 medium containing 10% FBS and 1% penicillin/streptomycin. MCF-7, HCT-116 and Hela were routinely cultured in medium DMEM/high glucose containing 10% FBS and 1% penicillin/streptomycin. All cell lines were incubated in culture at 37 °C in air with 5% CO2 for 24 h.
(§2) All cell lines were plated in 96-well plates, and each well contains 4000 cells in 100 μL culture medium. Then the cells were treated with genistein or its amino acid derivatives dissolved in DMSO at different doses in a CO2 incubator at 37 °C for 48 h, and DMSO was used as vehicle control. After removing the culture medium, 10 μL MTT and 90 μL blank culture medium were added to each well and incubated for additional 4 h at 37 °C. The absorbance was determined by a microplate-reader at 490 nm.

Hela = experiment: MTT cytotoxicity assay, Hela; assay type: cell-based; settings: Homo sapiens, 48 h, mean ± SD of three experiments, read-out: Cancer cell lines IC50, Hela
Experimental: as §1, §2

BSA [2] = biological target: T1, BSA; experiment: Fluorescence quenching of BSA (Stern-Volmer, double-log, van't Hoff); assay type: binding, bovine; settings: for K SV (quenching constant): BSA 1 μM, pH 7.4; for ΔGexp: ΔGexp = ΔH − TΔS; for K q (quenching rate constant): τ0 = 10^−8 s; for Kd: read-out: K b (binding constant) (converted); for ΔH / ΔS: van't Hoff, 298-310 K
Experimental: Fluorescence spectra were carried on a F-7000 fluorescence spectrophotometer (Japan) fitted out with a 1.0 cm quartz dish. The excitation wavelength was set at 280 nm with 5/5 nm slit widths, while the emission wavelength ranged from 290 nm to 500 nm at different temperatures. The BSA solution (1 μM) was titrated with genistein and its amino acid derivatives 4a–4d for three times. The final concentrations of genistein and 4a–4d were (0.0, 6.4, 12.8, 19.2, 25.6, 32, 38.4, 44.8, and 51.2) μM.
The Stern–Volmer equation is often applied to reveal the fluorescence quenching mechanism:[19]1 [drawing 1] where F0 and F are the fluorescence intensities of complex […], respectively.[18] [Q] denotes the concentration of quencher. Ksv and Kq are quenching constant and quenching rate constant of BSA, respectively.[20]τ0 is the lifetime of fluorophore in the absence of genistein, 4a–4d and equals to 10^−8 s.[21] […] It can be observed that the Ksv values decreased gradually with rise in temperature in Table 2. Furthermore, Kq values were in the order of 10^12, which were larger than the maximum diffusion collisional rate constant (2.0 × 10^10 M^−1 s^−1).[22]
Double-logarithmic eqn (2) is often used to explore the binding parameters of static quenching, such as binding constant (Kb) and binding sites (n):[23]2 [drawing 2]
To clarify the binding forces between genistein, 4a–4d and BSA, the thermodynamic parameters were studied via the van't Hoff equations:[25]3 [drawing 3] 4 ΔG = −RT ln K = ΔH − TΔSwhere T denotes the experimental temperature, K denotes the binding constant at the corresponding temperature, R is the gas constant.[26] According to Ross and Subramanian's previous research,[27] the characteristic for van der Waals interactions or/and hydrogen bonding is ΔH < 0 and ΔS < 0, for hydrophobic interaction is ΔH > 0 and ΔS > 0, and for electrostatic interactions is ΔH ≈ 0 and ΔS > 0.[28] The calculation results of the thermodynamic parameters were recorded in Table 3.

MCF-7 = experiment: MTT cytotoxicity assay, MCF-7; assay type: cell-based; settings: Homo sapiens, MCF7, 48 h, mean ± SD of three experiments, read-out: Cancer cell lines IC50, MCF-7
Experimental: as §1, §2

MGC-803 = experiment: MTT cytotoxicity assay, MGC-803; assay type: cell-based; settings: Homo sapiens, 48 h, mean ± SD of three experiments, read-out: Cancer cell lines IC50, MGC-803
Experimental: as §1, §2

[3] = Peak 1, [BSA]:[compound] = 1:3, 298 K
[4] = Peak 2, [BSA]:[compound] = 1:3, 298 K
[5] = Peak a (Rayleigh scattering), [BSA]:[compound] = 1:3, 298 K

T1 sequence (P02769 25-607): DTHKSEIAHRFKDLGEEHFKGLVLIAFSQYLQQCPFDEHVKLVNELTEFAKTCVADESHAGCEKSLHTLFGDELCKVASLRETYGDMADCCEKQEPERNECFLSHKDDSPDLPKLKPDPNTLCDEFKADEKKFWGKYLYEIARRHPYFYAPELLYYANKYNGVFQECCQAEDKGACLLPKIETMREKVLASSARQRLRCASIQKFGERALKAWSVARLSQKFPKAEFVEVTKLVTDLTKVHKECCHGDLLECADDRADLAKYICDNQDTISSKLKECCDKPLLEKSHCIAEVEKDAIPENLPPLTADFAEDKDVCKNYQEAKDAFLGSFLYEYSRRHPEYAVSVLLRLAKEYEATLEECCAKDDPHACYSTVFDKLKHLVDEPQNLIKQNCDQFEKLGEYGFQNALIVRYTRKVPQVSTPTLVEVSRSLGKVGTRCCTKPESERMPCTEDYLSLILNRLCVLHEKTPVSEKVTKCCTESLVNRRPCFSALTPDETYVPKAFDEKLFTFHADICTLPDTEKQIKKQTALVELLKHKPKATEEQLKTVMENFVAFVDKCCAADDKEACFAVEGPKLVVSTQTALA

| 3D fluorescence intensity (BSA [1]; [3]) | 3D fluorescence peak position λex/λem (BSA [1]; [3]) | 3D fluorescence intensity (BSA [1]; [4]) | 3D fluorescence peak position λex/λem (BSA [1]; [4]) | 3D fluorescence intensity (BSA [1]; [5]) | 3D fluorescence peak position λex/λem (BSA [1]; [5]) | K SV (quenching constant) (BSA [2]; T 298 K) | ΔGexp (BSA [2]; T 298 K) | K q (quenching rate constant) (BSA [2]; T 298 K) | Kd (BSA [2]; T 298 K) | n (binding sites) (BSA [2]; T 306 K) | K SV (quenching constant) (BSA [2]; T 306 K) | ΔGexp (BSA [2]; T 306 K) | K q (quenching rate constant) (BSA [2]; T 306 K) | Kd (BSA [2]; T 306 K) | n (binding sites) (BSA [2]; T 310 K) | ΔGexp (BSA [2]; T 310 K) | Kd (BSA [2]; T 310 K) | Compound | IC50 (HCT-116) | IC50 (Hela) | further results |
| --- | --- | --- | --- | --- | --- | --- | --- | --- | --- | --- | --- | --- | --- | --- | --- | --- | --- | --- | --- | --- | --- |
| 254.6 a.u | 230/355 | 338.3 a.u | 280/355 | 210.9 a.u | 290/295 | 6.2575 ± 0.1717 10^4 M^−1 | -41.29 kJ/M | 6.2575 10^12 M^−1 s^−1 | 84 nM | 1.53 | 5.0010 ± 0.1067 10^4 M^−1 | -37.63 kJ/M | 5.0010 10^12 M^−1 s^−1 | 119 nM | 1.24 | -35.81 kJ/M | 2010 nM | COC(=O)C(NC(=O)COc1cc(O)c2c(=O)c(-c3ccc(O)cc3)coc2c1)C(C)C (stereo not drawn) [4c] | 42.64 ± 0.15 µM | 82.71 ± 0.15 µM | n (binding sites) (BSA [2]; T 298 K): 1.54; K SV (quenching constant) (BSA [2]; T 310 K): 4.8646 ± 0.1370 10^4 M^−1; K q (quenching rate constant) (BSA [2]; T 310 K): 4.8646 10^12 M^−1 s^−1; ΔH (BSA [2]): -177.34 kJ/M; ΔS (BSA [2]): −456.55 J K^−1 M^−1; IC50 (MCF-7): 99.73 ± 0.11 µM; IC50 (MGC-803): 33.53 ± 0.13 µM |
| 249.8 a.u | 230/355 | 300.8 a.u | 280/355 | 167.9 a.u | 290/295 | 9.3690 ± 0.1055 10^4 M^−1 | -49.21 kJ/M | 9.3690 10^12 M^−1 s^−1 | 2.3 nM | 1.72 | 9.0645 ± 0.0720 10^4 M^−1 | -47.21 kJ/M | 9.0645 10^12 M^−1 s^−1 | 9.52 nM | 1.66 | -46.22 kJ/M | 15.3 nM | COC(=O)CNC(=O)COc1cc(O)c2c(=O)c(-c3ccc(O)cc3)coc2c1 [4a] | 65.3 ± 2.91 µM | 66.6 ± 3.6 µM | n (binding sites) (BSA [2]; T 298 K): 1.86; K SV (quenching constant) (BSA [2]; T 310 K): 7.7362 ± 0.1223 10^4 M^−1; K q (quenching rate constant) (BSA [2]; T 310 K): 7.7362 10^12 M^−1 s^−1; ΔH (BSA [2]): -123.52 kJ/M; ΔS (BSA [2]): −249.37 J K^−1 M^−1; IC50 (MCF-7): > 100 µM; IC50 (MGC-803): 24.4 ± 1.27 µM |
| 199.8 a.u | 230/355 | 242.6 a.u | 280/355 | 140.7 a.u | 290/295 | 8.0160 ± 0.1379 10^4 M^−1 | -42.01 kJ/M | 8.0160 10^12 M^−1 s^−1 | 64.9 nM | 1.53 | 6.9409 ± 0.0956 10^4 M^−1 | -38.43 kJ/M | 6.9409 10^12 M^−1 s^−1 | 79.4 nM | 1.23 | -36.65 kJ/M | 1550 nM | COC(=O)C(C)NC(=O)COc1cc(O)c2c(=O)c(-c3ccc(O)cc3)coc2c1 (stereo not drawn) [4b] | > 100 µM | 90.27 ± 0.47 µM | ΔH (BSA [2]): -175.21 kJ/M; ΔS (BSA [2]): −446.98 J K^−1 M^−1; IC50 (MCF-7): 21.3 ± 2.24 µM; IC50 (MGC-803): 12.08 ± 0.06 µM |
| 263.8 a.u | 230/355 | 331.4 a.u | 280/355 | 155.5 a.u | 290/295 | 4.9339 ± 0.0500 10^4 M^−1 | -39.53 kJ/M | 4.9339 10^12 M^−1 s^−1 | 150 nM | 1.47 | 4.8535 ± 0.0465 10^4 M^−1 | -37.19 kJ/M | 4.8535 10^12 M^−1 s^−1 | 209 nM | 1.28 | -36.02 kJ/M | 1420 nM | COC(=O)C(CC(C)C)NC(=O)COc1cc(O)c2c(=O)c(-c3ccc(O)cc3)coc2c1 (stereo not drawn) [4d] | 92.87 ± 0.04 µM | 68.1 ± 1.05 µM | n (binding sites) (BSA [2]; T 298 K): 1.50; K SV (quenching constant) (BSA [2]; T 310 K): 4.5804 ± 0.0360 10^4 M^−1; K q (quenching rate constant) (BSA [2]; T 310 K): 4.5804 10^12 M^−1 s^−1; ΔH (BSA [2]): -126.67 kJ/M; ΔS (BSA [2]): −292.42 J K^−1 M^−1; IC50 (MCF-7): 47 ± 3.53 µM; IC50 (MGC-803): 35.4 ± 3.72 µM |

| Compound | 3D fluorescence intensity (BSA [1]; [3]) | 3D fluorescence peak position λex/λem (BSA [1]; [3]) | 3D fluorescence intensity (BSA [1]; [4]) | 3D fluorescence peak position λex/λem (BSA [1]; [4]) | 3D fluorescence intensity (BSA [1]; [5]) | 3D fluorescence peak position λex/λem (BSA [1]; [5]) | K SV (quenching constant) (BSA [2]; T 298 K) | ΔGexp (BSA [2]; T 298 K) | K q (quenching rate constant) (BSA [2]; T 298 K) | Kd (BSA [2]; T 298 K) | n (binding sites) (BSA [2]; T 306 K) | K SV (quenching constant) (BSA [2]; T 306 K) | ΔGexp (BSA [2]; T 306 K) | K q (quenching rate constant) (BSA [2]; T 306 K) | Kd (BSA [2]; T 306 K) | n (binding sites) (BSA [2]; T 310 K) | ΔGexp (BSA [2]; T 310 K) | Kd (BSA [2]; T 310 K) | IC50 (HCT-116) | IC50 (Hela) | further results |
| --- | --- | --- | --- | --- | --- | --- | --- | --- | --- | --- | --- | --- | --- | --- | --- | --- | --- | --- | --- | --- | --- |
| O=c1c(-c2ccc(O)cc2)coc2cc(O)cc(O)c12 [Genistein] | 259.2 a.u | 230/355 | 333.2 a.u | 280/355 | 159.6 a.u | 290/295 | 6.2416 ± 0.0984 10^4 M^−1 | -37.69 kJ/M | 6.2416 10^12 M^−1 s^−1 | 256 nM | 1.39 | 5.3472 ± 0.1242 10^4 M^−1 | -37.11 kJ/M | 5.3472 10^12 M^−1 s^−1 | 415 nM | 1.37 | -36.83 kJ/M | 671 nM | > 100 µM | > 100 µM | n (binding sites) (BSA [2]; T 298 K): 1.42; K SV (quenching constant) (BSA [2]; T 310 K): 4.3285 ± 0.1005 10^4 M^−1; K q (quenching rate constant) (BSA [2]; T 310 K): 4.3285 10^12 M^−1 s^−1; ΔH (BSA [2]): -59.09 kJ/M; ΔS (BSA [2]): −71.83 J K^−1 M^−1; IC50 (MCF-7): > 100 µM; IC50 (MGC-803): > 100 µM |

Reference: PMC9085648, “Synthesis of novel genistein amino acid derivatives and investigation on their interactions with bovine serum albumin by spectroscopy and molecular docking” (RSC Advances, 2018)
